Assay results published in patent publication US10787650B2, “Artificial bioluminescent enzymes” (NATIONAL INSTITUTE OF ADVANCED INDUSTRIAL SCIENCE AND …, priority 2015, dated 2020).
Entries after “also recorded” stand apart in the source; their conditions may differ.

How the values were obtained:
ALuc16 [1] = experiment: Metal cation-driven optical intensities of ALuc16 (purified enzyme); type: biochemical
Protocol: The metal cation-driven optical properties were estimated with ALuc16 (FIG. 6). A metal cation-free sample of ALuc16 was prepared beforehand as follows: we first generated a DNA construct of ALuc16 carrying a Strep-II tag at the C-terminus via PCR. The construct was then cloned into a pOPTHM vector (providing a cleavable N-terminal His6-MBP tag), and expressed in the bacterial strain Shuffle T7 Express (New England Biolabs) with 0.3 mM IPTG induction. […] The lysate was centrifuged at 18,000 rpm for 40 minutes, and then the supernatant was passed over a 5 mL HisTrap HP column (GE Healthcare). […] The eluted sample was dialyzed to a metal-cation-free Tris-HCl buffer (0.05 M, pH 8.2) at 4° C. for 24 hours, and finally adjusted to a concentration of 1 mg/ml by dilution. […] Meanwhile, the corresponding substrate solution carrying nCTZ (Promega) was diluted 100-fold with the cation-free Tris-HCl buffer (Solution B). 50 μL of Solution B was simultaneously injected into Solution A in the 96-well plate with a multichannel micropipette (Gilson). The microplate was immediately moved to an image analyzer (LAS-4000, FujiFilm) equipped with a cooled charge-coupled device (CCD) camera, and the optical intensities were simultaneously estimated in a precision mode. The measurements were conducted in triplicate (n=3). The optical images were analyzed with Multi Gauge V3.2 (FujiFilm). […] The experiment was conducted by the same method as that of FIG. 6. In the inset, the optical image taken with LAS-4000 (FujiFilm) is shown.

ALuc16 [2] = experiment: Circular dichroism (CD) measurement of metal cation-mixed ALuc16; details: for effect on structure of ALuc16 (CD spectra, 222 nm): varying cation concentrations
Protocol: Circular dichroism (CD) measurement was further conducted for reasoning the cation-driven degradation of ALuc16 activities (FIG. 9). Samples were prepared by mixing varying concentrations of Pb(II) or Al(III) with column-purified and dialyzed ALuc16, and were measured with a CD spectrometer (JASCO, Japan) after preparation.

ALuc16 [3] = experiment: Metal cation-driven variance of bioluminescence spectra of ALuc16; type: biochemical; details: 100 μg/mL cation
Protocol: The corresponding bioluminescence spectra (FIG. 6(B)) were also measured using the same method as that of FIG. 6(A). In a 200 μL PCR tube, 50 μL of the mixture of ALuc16 and a metal cation (Ca(II), Fe(III), Ni(II), Zn(II), Mg(II), or Cr(VI); concentration: 100 μg/mL) in the metal-cation-free Tris-HCl buffer (Solution A) was further mixed with 10 μL of an nCTZ solution (Solution B). The tube was immediately moved into the chamber of a precision spectrophotometer (AB-1850, ATTO) (FIG. 6(B)), and the consequent spectra were taken in an integration of 30 seconds.

ALuc16 [4] = experiment: Cation-driven long-term stability of optical intensities of ALuc16; type: biochemical
Protocol: The long-term stability of optical intensities was estimated by the same method as that of FIG. 6(A) (FIG. 8(A)). The microplate was placed in the chamber of LAS-4000, and the optical intensities were monitored every 5 minutes, after substrate injection, for a duration of 60 minutes.

molecular strain sensor = experiment: Metal ion effects on luminescence of the purified molecular strain sensor; type: biochemical; details: within 1 minute after substrate addition
Protocol: For this experiment, the concentration of the purified molecular strain sensor was adjusted to 0.1 mg/mL by dilution in a Tris-HCl buffer (pH 8.2). Rapamycin was added to the molecular strain sensor and the final concentration was adjusted to […]. After that, the resultant was diluted with metal ion-containing Tris-HCl buffer (pH 8.2) to make a 0.01 mg/mL molecular strain sensor solution. At this time, the final concentration of the metal ion added was 10 μg/mL. The solution was transferred to a 96-well microplate, and, while the substrate solution was added from a microinjector, luminescence intensities were measured with or without a metal ion.
The luminescence stability of the luminescent probe dependent on different metal ion concentrations was studied by a similar technique (FIG. 23). The substrate solution was added from a microinjector in the same manner as above, and then changes in luminescence intensity over 1 minute were measured.

Fridericia luciferase = details: cited from earlier work
[5] = Enzymatic activity confirmation: temporal stability in luminescence; type: biochemical, African monkey; details: compared to existing ALuc or conventional copepod luciferases
Protocol: The enzymatic activity of ALuc may be examined according to the following method. First, using a known lipid reagent for gene introduction, an expression vector encoding ALuc is introduced into African monkey-derived COS-7 cells. As a control, an expression vector having a known GLuc without any mutation is also introduced into the cells in the same manner. At a predetermined time (from 10 hours to 20 hours, for example, 16 hours) after the introduction of the vector, a cell lysate is prepared using a known cell lysis reagent.
After that, the cell lysate is mixed with a known substrate solution containing coelenterazine, and its color intensity, temporal stability in luminescence, and the like are measured.
The luminescence intensity may be found by measuring the intensity at a specific wavelength using a conventional luminescence spectrophotometer after addition of a known substrate. By performing the measurement every minute, the temporal stability in luminescence can be evaluated based on the temporal change in luminescence. In order to measure a shift to a longer wavelength, scanning of the entire wavelength is required.

[6] = Luminescence activity of novel artificial bioluminescent enzymes (COS-7 cell lysate); type: biochemical, African green monkey; details: COS-7 lysate, native coelenterazine
Protocol: African green monkey kidney-derived COS-7 cells were cultured using a 96-well microplate. The COS-7 cells were grown until occupying 90% of the bottom-surface area of the culture plate, and, as shown in FIG. 19 and FIG. 20, were each transiently transfected with a pcDNA 3.1(+) vector (Invitrogen) encoding each luminescent enzyme with a lipofection reagent (TransIT-LT1, Mirus). After that, the cells were further cultured for about 1 day. After the culture, cell lysates were prepared using a cell lysis agent (Lysis buffer, Promega), and 5 μL each of the cell lysates was taken from each well and transferred to a 96-well microplate for measurement. An assay buffer (50 μL) containing native coelenterazine was simultaneously added to each well using a multichannel pipette. Immediately after the addition of the assay buffer, the microplate was moved into the black box of an image analyzer (LAS-4000, FujiFilm), and luminescence images were measured with a CCD camera (FIG. 19 and FIG. 20).

[Cl][Pb][Cl] [Pb(II)]
concentration by which the optical intensity was quickly decreased (ALuc16 [1]; Tris-HCl, pH 8.2): 1 µg/mL
detection limit (ALuc16 [1]; dose-response of ALuc16 activities): around 0.4 μg/mL
effect on optical intensities (activities) of ALuc16 (ALuc16 [1]; metal cation-free Tris-HCl buffer (pH 8.2, 0.05 M), nCTZ): suppress; also recorded: quickly inhibited
levels that showed basal noise CD spectra (ALuc16 [2]): higher than 1 μg/mL
effect on structure of ALuc16 (CD spectra, 222 nm) (ALuc16 [2]): destroy the tertiary structure of ALuc16; also recorded: the structure of ALuc16 is denatured

[Cl][Ni][Cl] [Ni(II)]
red shift of the bioluminescence spectrum (ALuc16 [3]): 4 nm

[Cl][Al]([Cl])[Cl] [Al(III)]
effect on structure of ALuc16 (CD spectra, 222 nm) (ALuc16 [2]): α-helical portion is gradually decreased; also recorded: destroy the tertiary structure of ALuc16; also recorded: the structure of ALuc16 is denatured

[Ca+2].[Cl-].[Cl-] [Ca(II)]
blue shift of the bioluminescence spectrum (ALuc16 [3]): 2 nm
effect on long-term stability of bioluminescence intensities (ALuc16 [4]; 60 minutes after substrate injection): prolonged the bioluminescence intensities in a concentration-dependent manner
optical intensity retained (ALuc16 [4]; after 60 minutes): 4%
initial optical intensity sustained (ALuc16 [4]; for 13 minutes after nCTZ injection): 60%
effect of increasing concentration on overall luminescence intensity (molecular strain sensor): reduces an overall luminescence intensity
effect of increasing concentration on S/N ratio (molecular strain sensor; with/without rapamycin): improves an S/N ratio
effect on activities of Fridericia luciferase (Fridericia luciferase): elevate

B1: ALuc45: artificial luciferase, SEQ ID NO: 5 (protein)
chain: MMGIKVLFALVCLALVQAKPTEDEDEDDIVDVVGNFWAIGVDNDRDFTISADRGKLPGKKLPKEVLIEIEANAKKAGCTRGCLICLSKIKCTAKMKKWLPGRCHSYEGDKDTGQGGIGEPIVDAPEIPGFKDLTPMEQFIAQVDLCADCTTGCLKGLANVKCSALLKKWLPDRCASFADKIQKEVDNIKGLAGS
luminescence stability [5]: remarkably stable luminescence signal
luminescence intensities as compared to conventional ALucs (e.g., ALuc16 and ALuc30) [6]: even stronger luminescence intensities
